Source: PMC10051454, “Synthesis of Schiff Bases Containing Phenol Rings and Investigation of Their Antioxidant Capacity, Anticholinesterase, Butyrylcholinesterase, and Carbonic Anhydrase Inhibition Properties” (Pharmaceutics, 2023)
Values joined by “and” are separate entries in the source; they are usually repeats but may differ in a detail not shown here. Identical values can stand only once. Like-named read-outs stand apart in the source and are kept apart here.

Assays:
[1] = Fe3+ reducing ability (ferricyanide method, absorbance 700 nm); settings: 30 µg/mL; absorbance at 700 nm
Experimental: The Fe^3+ reducing ability of Schiff bases (10–15) and hydrazineylidene derivatives (16 and 17) were tested according to our prior studies. For this purpose, various concentrations of compounds (10–17) were transferred into test tubes, and 2.5 mL of phosphate buffer (0.2 M, pH 6.6) and 2.5 mL (1%) of potassium ferricyanide [K3Fe(CN)6] solutions were added. Then, the mixture was vortexed and incubated at 50 °C for 20 min. A portion of trichloroacetic acid (2.5 mL, 10%) was added. Then, 2.5 mL of upper layers of the solutions were mixed with 2.5 mL distilled water and 0.5 mL FeCl3 (0.1%). The absorbance values of the reducing effects of compounds (10–17) and standards were spectrophotometrically recorded at 700 nm.

[2] = DPPH radical scavenging (Blois method); settings: half maximal scavenging concentration
Experimental: DPPH· and ABTS^•+ scavenging methods are the most widely used spectrophotometric methods to determine the antioxidant capacity of newly synthesized compounds. The DPPH‧ scavenging effect of Schiff bases (10–15) and hydrazineylidene derivatives (16 and 17) was realized according to the Blois method. Briefly, 1 mL of DPPH^• solution (0.1 mM), which was prepared in ethanol and was a violet/purple color […], was added to the Schiff base (10–15) and hydrazineylidene derivative (16 and 17) samples at different concentrations (10–30 μg/mL). Then, they were incubated at room temperature for 30 min and their absorbance values were recorded at 517 nm.

[3] = ABTS radical cation scavenging
Experimental: The ABTS radical cation scavenging assay was used as a way to calculate antioxidant capacity based on this radical scavenging ability. Firstly, an aqueous solution of ABTS (7.0 mM) was oxidized by oxidants such as K2S2O8 (2.5 mM) for the production of its radical cation (ABTS^•+). […] Then, 1 mL of ABTS^•+ solution was added to 3 mL Schiff base (10–15) and hydrazineylidene derivative (16 and 17) solutions at different concentrations (10–30 μg/mL).

[4] = Fe3+-TPTZ complex reducing ability (absorbance 593 nm); settings: 30 µg/mL; absorbance at 593 nm
Experimental: The Fe^3+-TPTZ complex reducing ability of Schiff bases (10–15) and hydrazineylidene derivatives (16 and 17) was realized according to a previous study. For this, 2.25 mL of TPTZ solution (10 mM in 40 mM HCl) was freshly prepared, then added to 2.5 mL of acetate buffer (0.3 M, pH 3.6) and 2.25 mL of FeCl3 solution (20 mM). Then, different concentrations of Schiff bases (10–15) and hydrazineylidene derivatives (16 and 17) were transferred and incubated at 37 °C for 30 min. Finally, the absorbance values of the reducing power of Schiff bases (10–15) and hydrazineylidene derivatives (16 and 17) and standards were spectrophotometrically measured at 593 nm.

[5] = Cu2+ reducing ability (neocuproine method, absorbance 450 nm); settings: 30 µg/mL; absorbance at 450 nm
Experimental: The Cu^2+ reducing ability of Schiff bases (10–15) and hydrazineylidene derivatives (16 and 17) were detected according to a prior study. For this purpose, 0.25 mL of CuCl2 solution (10 mM), 0.25 mL of ethanolic neocuproine solution (7.5 × 10^−3 M), and 250 μL of NH4Ac buffer solution (1.0 M) in different concentrations (10–30 μg/mL) were transferred to test tubes containing Schiff base (10–15) and hydrazineylidene derivative (16 and 17) samples. The total volume was made up to 2 mL with distilled water, and their absorbance values were recorded at 450 nm after 30 min of incubation.

[6] = molecular target: BChE (Homo sapiens, UniProt P06276); assay: biochemical
Sequence of BChE (P06276 29-602): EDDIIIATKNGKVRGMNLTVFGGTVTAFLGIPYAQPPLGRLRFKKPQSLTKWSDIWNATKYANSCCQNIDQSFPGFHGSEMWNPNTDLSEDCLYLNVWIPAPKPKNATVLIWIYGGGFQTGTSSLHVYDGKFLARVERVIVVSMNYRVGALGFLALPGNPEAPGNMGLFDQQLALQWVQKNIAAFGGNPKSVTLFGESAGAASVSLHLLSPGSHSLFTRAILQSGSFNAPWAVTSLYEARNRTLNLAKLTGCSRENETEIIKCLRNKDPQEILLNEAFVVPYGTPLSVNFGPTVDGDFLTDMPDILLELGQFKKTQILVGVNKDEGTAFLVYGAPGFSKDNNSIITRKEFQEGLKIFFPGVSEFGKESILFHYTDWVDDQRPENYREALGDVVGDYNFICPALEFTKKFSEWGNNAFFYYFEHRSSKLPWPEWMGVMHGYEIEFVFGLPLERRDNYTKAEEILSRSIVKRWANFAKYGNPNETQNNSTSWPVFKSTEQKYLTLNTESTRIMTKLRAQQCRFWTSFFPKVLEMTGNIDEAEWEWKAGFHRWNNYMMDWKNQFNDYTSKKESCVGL
Experimental: (§1) Acetylthiocholine iodide/butyrylthiocholine iodide (AChI)/BChI) and 5,5′-dithiobis(2-nitro-benzoic acid) (DTNB) were used as the substrate pattern for both cholinergic reactions. […] Then, the samples were incubated at 25 °C for 15 min, and 50 μL of DTNB solution (0.5 mM,) was transferred.

[7] = molecular target: AChE (Homo sapiens, UniProt P22303); assay: biochemical
Sequence of AChE (P22303 32-614): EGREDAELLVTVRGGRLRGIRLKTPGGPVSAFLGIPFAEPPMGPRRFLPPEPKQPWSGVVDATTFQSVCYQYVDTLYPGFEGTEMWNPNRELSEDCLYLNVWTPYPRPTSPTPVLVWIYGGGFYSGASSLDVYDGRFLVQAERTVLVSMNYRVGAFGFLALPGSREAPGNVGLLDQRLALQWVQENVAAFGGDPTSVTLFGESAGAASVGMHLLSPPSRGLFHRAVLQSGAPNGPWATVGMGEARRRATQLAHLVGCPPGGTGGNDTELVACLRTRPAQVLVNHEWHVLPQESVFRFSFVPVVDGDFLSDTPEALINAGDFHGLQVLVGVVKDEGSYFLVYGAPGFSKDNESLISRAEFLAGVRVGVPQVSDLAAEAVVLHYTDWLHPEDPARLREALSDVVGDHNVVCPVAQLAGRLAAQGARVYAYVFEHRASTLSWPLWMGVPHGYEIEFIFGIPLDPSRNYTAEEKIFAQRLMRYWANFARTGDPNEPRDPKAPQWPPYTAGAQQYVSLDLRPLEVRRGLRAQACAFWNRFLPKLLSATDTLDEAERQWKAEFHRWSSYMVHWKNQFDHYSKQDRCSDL
Experimental: as §1

[8] = molecular target: T1, hCA I (Homo sapiens, UniProt P00915); assay: biochemical
T1 sequence (P00915 whole entry): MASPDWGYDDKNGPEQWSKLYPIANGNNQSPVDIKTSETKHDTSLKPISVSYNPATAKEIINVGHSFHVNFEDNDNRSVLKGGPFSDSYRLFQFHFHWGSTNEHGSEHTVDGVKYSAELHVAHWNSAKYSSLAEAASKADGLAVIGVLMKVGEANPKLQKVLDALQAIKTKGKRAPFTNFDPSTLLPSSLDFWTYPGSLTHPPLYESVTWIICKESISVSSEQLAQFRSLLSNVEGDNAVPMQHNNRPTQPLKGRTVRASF
From the text: (§2) Both isoforms’ activity was spectrophotometrically determined according to the Verpoorte assay [47]. […] All experiments of the CA inhibition assay were repeated three times and the results are given as the arithmetic mean of these repetitions.

[9] = molecular target: hCA II (Homo sapiens, UniProt P00918); assay: hCA II inhibition, esterase assay (Verpoorte); type: biochemical
From the text: as §2

[10] = molecular target: T1, hCA I
From the text: as §2

Row | Structure (SMILES) | Fe^3+ Reducing λ700 [1] [absorbance] | DPPH^• Scavenging IC50 [2] | ABTS^•+ Scavenging IC50 [3] | Fe^3+-TPTZ Reducing λ593 [4] [absorbance] | Cu^2+ Reducing λ450 [5] [absorbance] | IC50 ([6]; read-out: IC50 BChE) [nM] | Selectivity Index (AChE/BChE) [7] | IC50 ([7]; read-out: IC50 AChE) [nM] | IC50 [8] [nM] | IC50 ([9]; read-out: IC50 hCA II) [nM] | Selectivity Index (hCA I/hCA II) [10] | Ki [8] [nM] | Ki [9] [nM] | IC50 [6] [nM] | IC50 [7] [nM] | IC50 [9] [nM]
1 | COc1ccc(O)c(C(C)(C)C)c1 [BHA, butylated hydroxyanisole, reference compound] | 2.448 ± 0.021 | 11.55 µg/mL | 4.47 µg/mL | 2.156 ± 0.005 | 2.268 ± 0.011 |  |  |  |  |  |  |  |  |  |  | 
2 | COc1ccc(/C=N/c2ccc(N(C)C)cc2)cc1O [Compound 10, (E)-5-(((4-(Dimethylamino)phenyl)imino)methyl)-2-methoxyphenol] | 2.827 ± 0.016 | 16.902 µg/mL and 16.90 µg/mL | 14.437 µg/mL and 14.43 µg/mL | 2.076 ± 0.004 | 2.176 ± 0.044 | 23.9 | 1.115 | 26.7 | 66 | 131 | 0.372 |  |  |  |  | 
3 | Cc1cc(C(C)(C)C)c(O)c(C(C)(C)C)c1 [BHT, butylated hydroxytoluene, reference compound] | 1.994 ± 0.033 | 13.326 µg/mL and 13.32 µg/mL | 4.95 µg/mL | 2.037 ± 0.027 | 2.149 ± 0.019 |  |  |  |  |  |  |  |  |  |  | 
4 | COc1ccc(/C=N/c2ccc(N)cc2)cc1O [Compound 14, (E/Z)-5-(((4-Aminophenyl)imino)methyl)-2-methoxyphenol] | 2.741 ± 0.026 | 13.86 µg/mL | 5.33 µg/mL | 2.074 ± 0.017 | 1.970 ± 0.018 | 38.5 | 0.900 | 34.6 | 53.3 | 69.3 | 0.306 | 26.1 ± 8.53 |  |  |  | 
5 | COc1ccc(/C=N/c2ccc(F)cc2)cc1O [Compound 12, (E)-5-(((4-Fluorophenyl)imino)methyl)-2-methoxyphenol] | 0.294 ± 0.008 | 57.75 µg/mL | 27.72 µg/mL | 0.806 ± 0.003 | 0.951 ± 0.010 | 33 | 0.700 | 23.1 | 61.9 | 99 | 0.424 |  |  |  |  | 
6 | Cc1c(C)c2c(c(C)c1O)CC[C@@](C)(CCC[C@H](C)CCC[C@H](C)CCCC(C)C)O2 [α-Tocopherol, α-tocopherol, reference compound] | 1.446 ± 0.009 | 10.043 µg/mL and 10.04 µg/mL | 9.493 µg/mL and 9.49 µg/mL | 1.763 ± 0.026 | 1.923 ± 0.032 |  |  |  |  |  |  |  |  |  |  | 
7 | NN=C(c1ccccc1)c1ccccc1 [Compound 8, benzophenone hydrazone] |  |  |  |  | 1.005 ± 0.009 |  |  |  |  |  |  |  |  |  |  | 
8 | Cc1c(C)c2c(c(C)c1O)CCC(C)(C(=O)O)O2 (centres unmarked) [Trolox, trolox, reference compound] | 1.570 ± 0.016 | 12.157 µg/mL and 12.15 µg/mL | 4.846 µg/mL and 4.84 µg/mL | 2.051 ± 0.028 | 1.174 ± 0.027 |  |  |  |  |  |  |  |  |  |  | 
9 | COc1ccc(/C=N/c2ccc(Br)cc2)cc1O [Compound 13, (E)-5-(((4-Bromophenyl)imino)methyl)-2-methoxyphenol] | 0.198 ± 0.004 | 87.721 µg/mL and 87.72 µg/mL | 34.65 µg/mL | 0.701 ± 0.003 | 0.875 ± 0.020 | 28.9 | 0.615 | 17.8 | 63 | 77 | 0.483 |  | 67.6 ± 15.7 |  |  | 
10 | COc1ccc(/C=N/Cc2ccccc2)cc1O [Compound 15, (E)-5-((Benzylimino)methyl)-2-methoxyphenol] | 0.363 ± 0.021 | 99.01 µg/mL | 23.896 µg/mL and 23.89 µg/mL | 0.646 ± 0.034 | 0.803 ± 0.013 | 36.5 | 0.704 | 25.7 | 99 | 139 | 0.521 |  |  |  |  | 
11 | COc1ccc(/C=N/Nc2ccccc2)cc1O [Compound 17, (E)-2-Methoxy-5-((2-phenylhydrazineylidene)methyl)phenol] | 2.391 ± 0.037 | 14.744 µg/mL and 14.74 µg/mL | 4.304 µg/mL and 4.30 µg/mL | 2.121 ± 0.014 | 2.026 ± 0.016 | 19.8 | 1.206 | 23.9 | 96.2 | 116 | 0.247 |  |  |  |  | 
12 | COc1ccc(/C=N/N=C(c2ccccc2)c2ccccc2)cc1O [Compound 16, (E)-5-(((Diphenylmethylene)hydrazineylidene)methyl)-2-methoxyphenol] | 0.311 ± 0.018 | 30.13 µg/mL | 11.745 µg/mL and 11.74 µg/mL | 1.069 ± 0.057 | 1.266 ± 0.029 | 25.7 | 0.627 | 16.1 | 69.3 | 112 | 0.326 |  |  |  |  | 
13 | COc1ccc(/C=N/c2ccccc2O)cc1O [Compound 11, (E)-5-(((2-Hydroxyphenyl)imino)methyl)-2-methoxyphenol] | 2.591 ± 0.010 | 12.157 µg/mL and 12.15 µg/mL | 4.386 µg/mL and 4.38 µg/mL | 2.183 ± 0.016 | 2.332 ± 0.018 | 34.6 | 0.645 | 22.4 | 86.6 | 88.2 | 0.730 |  |  |  |  | 
14 | COc1ccc(C=O)cc1O [Compound 1, Isovanillin] | 0.244 ± 0.005 | 86.62 µg/mL | 12.15 µg/mL | 0.728 ± 0.020 | 1.005 ± 0.009 |  | 1.083 |  | 139 |  |  | 112 ± 25.8 |  | 53.3 | 57.8 | 173
